Laboratory results as given in US20060293388A1, “Pomolic acid, its isomers, derivatives and their uses, pharmaceutical composition, method to prepare the pharmaceutical composition and method for treating multidrug resistant tumours” (UNIVERSIDADE FEDERAL DO RIO DE JANEIRO, priority 2003, published 2006).

How the values were obtained:
[1] = tested on: Lucena 1; experiment: Growth/survival of Lucena 1 cells under vincristine and efflux pump modulators; assay type: cell-based
Protocol: A possible reverser activity of pomolic acid was evaluated by testing its effect over Lucena 1 cell line, that over expresses P glycoprotein (Pgp).

[2] = tested on: K562; experiment: Growth/survival of K562 cells under vincristine and efflux pump modulators; assay type: cell-based
[3] = tested on: MA104 cells; experiment: Cytotoxicity, MTT method, MA104; assay type: cell-based, monkey; conditions: 1-100 μg/ml, 48 h, FIGS. 7 and 8
Protocol: Ma104 cells were treated with 1, 5, 10, 25, 50 and 100 μg/ml of pomolic acid for 48 hours. The values represent the mean±standard error of three independent experiments.
(§1) The evaluation of the capacity of pomolic acid, its isomers and derivatives of killing tumor cells will be performed in vitro by the MTT method. The MTT method (3-4,5-dimethylthiazol-2yl)-2,5-diphenyltetrazolium bromide), that is based on the reduction of this compound to Formazam by the enzyme NADH dehydrogenase, Mosmann 1983, allows the quantification of the number of viable cells after treatment. For this, cells from the different cell lines will be processed as described above, distributed into plates and treated with the drug desired concentrations (1, 5, 10, 25, 50 or 100 μg/ml) or DMSO. After 48 h, 20 μl of MTT (5 mg/ml) will be added to each well and the plate will be incubated for a further 4 h in an incubator at 37° C. Following centrifugation, the formazan crystals will be dissolved with DMSO (200 μl/well) and the reading of the absorbance will be made in an ELISA reader at 570 nm wavelength. The percentage of inhibition of cellular viability will be calculated using as reference cells treated with DMSO.
(§2) For this 180 μl of the cell suspension (CaCo-2 or MA104) will be delivered to wells in a 96 wells microtiter plate, 2×10^4 cells/well, and the plate incubated in a CO2 incubator at 37° C. for 24 h. […]

[4] = tested on: resistant leukaemia cell line Lucena 1; experiment: Inhibition of cellular proliferation, 3H-thymidine incorporation, Lucena 1; assay type: cell-based
Protocol: The values represent the mean±standard error of three independent experiments. […] The values represent the mean±standard error of three independent experiments. The inhibition of cellular proliferation was measured through the incorporation of radioactive thimidine (3H-TdR). For this, 180 μl of the cell suspensions are delivered in wells of a 96 wells culture microtiter plate, 2×10^4 cells/well, followed by incubation in a CO2 incubator, at 37° C. for 24 h. After this period, 20 μl of RPMI (control) or the drug to be tested at the concentrations of 100 μg/ml, 50 μg/ml, 25 μg/ml, 10 μg/ml and 1 μg/ml, are added to each group of four wells. Some wells, to be used as controls, receive 20 μl of DMSO in the same concentrations carried by the drugs. Eight hours before the end of the culture, the plate received a pulse of radioactive thymidine (1 μCi/well) and radioactivity was measured in a β counter. The percentage of inhibition was calculated taking as a reference cell growth in the presence of DMSO. […] The experimental design was the same one as described in example 1.

[5] = tested on: HEp-2 (throat cancer); experiment: Cytotoxicity, HEp-2; assay type: cell-based
Description: as §1
(§3) Pomolic's acid activity was evaluated on cells sensitive to chemotherapeutic agents, such as leukaemic lines (K562 and HL-60), of lung cancer (A549) and throat (HEp-2), and on multidrug resistant of leukaemic origin (Lucena 1), of colon cancer (CaCo-2) and of monkey kidney (MA104). […]

[6] = tested on: CaCo-2 cells; experiment: Cytotoxicity, MTT method, CaCo-2; assay type: cell-based; conditions: 1-100 μg/ml, 48 h, FIGS. 6 and 8
Protocol: Caco-2 cells were treated with 1, 5, 10, 25, 50 and 100 μg/ml of pomolic acid for 48 hours. The values represent the mean±standard error of three independent experiments.
as §1, §2

[7] = tested on: A549 (lung cancer); experiment: Cytotoxicity, A549; assay type: cell-based
Description: as §1, §3

[8] = tested on: leukaemic cell line K562; experiment: Inhibition of cellular proliferation, 3H-thymidine incorporation, K562; assay type: cell-based; conditions: 1, 10 and 100 μg/ml, 48 hours, FIG. 1, dose-dependent
Protocol: FIG. 1 describes the inhibition of proliferation of the leukaemic cell line K562 by pomolic acid. […] The values represent the mean±standard error of three independent experiments. The inhibition of cellular proliferation was measured through the incorporation of radioactive thimidine (3H-TdR). For this, 180 μl of the cell suspensions are delivered in wells of a 96 wells culture microtiter plate, 2×10^4 cells/well, followed by incubation in a CO2 incubator, at 37° C. for 24 h. After this period, 20 μl of RPMI (control) or the drug to be tested at the concentrations of 100 μg/ml, 50 μg/ml, 25 μg/ml, 10 μg/ml and 1 μg/ml, are added to each group of four wells. Some wells, to be used as controls, receive 20 μl of DMSO in the same concentrations carried by the drugs. Eight hours before the end of the culture, the plate received a pulse of radioactive thymidine (1 μCi/well) and radioactivity was measured in a β counter. The percentage of inhibition was calculated taking as a reference cell growth in the presence of DMSO.

[9] = tested on: K562 cells; experiment: DNA fragmentation (apoptosis induction) by propidium iodide flow cytometry; assay type: cell-based; conditions: 18 h, mean ± SD of 3 experiments
Protocol: The effect of pomolic acid over DNA fragmentation was studied through the analysis of the cell cycle by flow cytometry. For this 90 μl of cells (2.5×10^5 cells/well) will be distributed in 96 well plates to which it will be added 10 μl of medium, DMSO or the drugs under test (10, 25, 50 and 100 μg/ml). After the defined period of time the cells will be harvested and spun down at 240 g for 5 min. The pellet will be resuspended in 300 μl of a HFS solution (HFS: 0.1% of Triton x-100, 0.1% of sodium citrate and 50 μg/ml of propidium iodide) and incubated at 4° C. for 1 h, in the absence of light. The samples will be read in a flow cytometer (Becton and Dikinson) using the FL2 channel.
The K562 cells were treated with 10, 25, 50 and 100 μg/ml of pomolic acid for 18 h, lysed by HFS treatment (that contains propidium iodide) and DNA fragmentation was measured by FACS (flow cytometry). The values represent the mean±SD of three independent experiments.

[10] = tested on: HL-60 cells; experiment: Cytotoxicity, MTT method, HL-60; assay type: cell-based; conditions: 1-100 μg/ml, 48 hours, FIG. 5
Protocol: HL-60 cells were treated with 1, 5, 10, 25, 50 and 100 μg/ml of pomolic acid for 48 hours. The values represent the mean±standard error of three independent experiments.
as §1

CC[C@]1(O)C[C@H]2CN(CCc3c([nH]c4ccccc34)[C@@](C(=O)OC)(c3cc4c(cc3OC)N(C=O)[C@H]3[C@@](O)(C(=O)OC)[C@H](OC(C)=O)[C@]5(CC)C=CCN6CC[C@]43[C@@H]65)C2)C1 [VCR, vincristine]
percentage of survival in relation to the untreated control, Lucena ([1]; Table 2, 3.75 nM): 106.6 ± 3.8% | percentage of survival in relation to the untreated control, Lucena ([1]; Table 2, 7.5 nM): 98.4 ± 1.9% | percentage of survival in relation to the untreated control, Lucena ([1]; Table 2, 15 nM): 97.4 ± 6.3% | percentage of survival in relation to the untreated control, Lucena ([1]; Table 2, 30 nM): 99.5 ± 6.5% | percentage of survival in relation to the untreated control, Lucena ([1]; Table 2, 60 nM): 97.8 ± 3.7% | percentage of survival, Lucena ([1]; Table 3, VCR 60 nM): 105.3 ± 7.3% | percentage of survival in relation to the untreated control, K562 ([2]; Table 2, 3.75 nM): 76 ± 7.8% | percentage of survival in relation to the untreated control, K562 ([2]; Table 2, 7.5 nM): 70.1 ± 11.8% | percentage of survival in relation to the untreated control, K562 ([2]; Table 2, 15 nM): 29.7 ± 7.7% | percentage of survival in relation to the untreated control, K562 ([2]; Table 2, 30 nM): 10 ± 2.9% | percentage of survival in relation to the untreated control, K562 ([2]; Table 2, 60 nM): 4.9 ± 3.1% | percentage of survival, K562 ([2]; Table 3, VCR 60 nM): 3.1 ± 1.5%

C[C@@H]1CC[C@]2(C(=O)O)CC[C@]3(C)C(=CC[C@@H]4[C@@]5(C)CC[C@H](O)C(C)(C)[C@@H]5CC[C@]43C)[C@@H]2[C@]1(C)O [pomolic acid]
cytotoxic activity towards MA104 [3]: shows a cytotoxic activity | inhibition of proliferation of Lucena ([4]; 1, 10 and 100 μg/ml, 48 hours, FIGS. 2 and 3, dose-dependent): inhibits | inhibition of Lucena 1 growth in the presence of vincristine ([4]; FIG. 2, 48 hours): inhibits Lucena's 1 growth in the presence of vincristine | killing of Lucena 1 in the absence of vincristine ([4]; FIG. 3, 48 hours): kills Lucena 1 in the absence of vincristine | Pgp substrate ([4]; concluded from activity on Pgp over-expressing Lucena 1 without vincristine): not a Pgp substrate | cytotoxic activity towards HEp-2 [5]: shows a cytotoxic activity | cytotoxic activity towards CaCo-2 [6]: shows a cytotoxic activity | cytotoxic activity towards A549 [7]: shows a cytotoxic activity | inhibition of proliferation of K562 [8]: inhibits | Percentage of DNA fragmentation in K562 cells ([9]; 10 μg/ml): 4.31 ± 1.21% | Percentage of DNA fragmentation in K562 cells ([9]; 25 μg/ml): 13.72 ± 0.52% | Percentage of DNA fragmentation in K562 cells ([9]; 50 μg/ml): 29.93 ± 2.74% | Percentage of DNA fragmentation in K562 cells ([9]; 100 μg/ml): 74.88 ± 5.69% | cytotoxic activity towards HL-60 [10]: shows a cytotoxic activity
